Experimental data taken from patent US20260042799A1, “APPLICATION OF PEPTIDE IN PREPARING DRUGS FOR TREATING AND/OR PREVENTING COGNITIVE IMPAIRMENT” (HUAZHONG UNIVERSITY OF SCIENCE AND TECHNOLOGY, priority 2024, published 2026).
Entries after “also recorded” stand apart in the source; their conditions may differ. Where no end group is shown, it is not given here.

Tests used:
P301S mice [1] = test: Open field test, P301S mice; assay type: in vivo; details: C57 and P301S mice, 15 mg/kg subcutaneous, 14 days
Source text: (§1) FIG. 3A to FIG. 3J show the statistical chart of TAT-P6 peptide improving mouse learning memory ability results. FIGS. 3A-B are behavioral experiments for four groups of mice (C57 mice injected with TAT-S6 group, C57 mice injected with TAT-P6 group, P301S mice injected with TAT-S6 group, P301S mice injected with TAT-P6 group) using open field test system.
(§2) Male P301S mice 6-8 months old (purchased from Jackson Laboratory), C57/BL6 mice 6-8 months old (purchased from Beijing Vital River Laboratory Animal Technology Co., Ltd.), SPF grade, weight 20-25 grams, raised in conventional environment.
Open field experiment: The open field experiment is an experiment in which animals are placed in a closed open metal box area with a length of 80 cm, width of 80 cm, and height of 50 cm to observe mouse activity. This area is divided into squares, and typically the number of squares crossed by mice within a given time is counted to examine the anxiety emotional state and movement ability of the experimental mice. […] The experimental area is set up on the computer, the experimental area is divided equally into a “ ? ” shape, with the innermost circle as the central region and the outermost as the peripheral region, then the camera is turned on, the light source is adjusted, and information such as the position, movement route, and distance of the experimental mice is recorded using the computer. […]

P301S mice [2] = test: Novel object recognition test; assay type: in vivo; details: 15 mg/kg subcutaneous, 14 days
Source text: as §1, §2
• 1) Mouse spatial memory detection: novel object recognition and water maze; • a) Novel object recognition: Before conducting the novel object recognition test, it is necessary to eliminate unfamiliarity with the mice by petting them daily to prevent stimulation during operation. The first stage is adaptation period. […] Within 5 min (many experiments have proven that after 2 min of familiarization period, animals already show good preference for novel objects, and of course, 3 min of familiarization makes the preference more obvious), the number of times, time, and distance the animal explores each object are measured. […] If the platform is not found within 90 s, the system automatically stops recording, and the latency period is recorded as 90 s. […]

[3] = molecular target: T1, binding between HA-GluA2 and EGFP-Syn2b (Homo sapiens, UniProt P42262); test: Co-immunoprecipitation/immunoblotting of Syn2b-GluA2 binding in co-transfected HEK293T cells; assay type: cell-based; details: 10 μM peptide in culture medium for 90 minutes, 48 hours after transfection
T1 construct: HA; expressed in transfected cells; host or cells: HEK293T
T1 sequence (P42262 25-883): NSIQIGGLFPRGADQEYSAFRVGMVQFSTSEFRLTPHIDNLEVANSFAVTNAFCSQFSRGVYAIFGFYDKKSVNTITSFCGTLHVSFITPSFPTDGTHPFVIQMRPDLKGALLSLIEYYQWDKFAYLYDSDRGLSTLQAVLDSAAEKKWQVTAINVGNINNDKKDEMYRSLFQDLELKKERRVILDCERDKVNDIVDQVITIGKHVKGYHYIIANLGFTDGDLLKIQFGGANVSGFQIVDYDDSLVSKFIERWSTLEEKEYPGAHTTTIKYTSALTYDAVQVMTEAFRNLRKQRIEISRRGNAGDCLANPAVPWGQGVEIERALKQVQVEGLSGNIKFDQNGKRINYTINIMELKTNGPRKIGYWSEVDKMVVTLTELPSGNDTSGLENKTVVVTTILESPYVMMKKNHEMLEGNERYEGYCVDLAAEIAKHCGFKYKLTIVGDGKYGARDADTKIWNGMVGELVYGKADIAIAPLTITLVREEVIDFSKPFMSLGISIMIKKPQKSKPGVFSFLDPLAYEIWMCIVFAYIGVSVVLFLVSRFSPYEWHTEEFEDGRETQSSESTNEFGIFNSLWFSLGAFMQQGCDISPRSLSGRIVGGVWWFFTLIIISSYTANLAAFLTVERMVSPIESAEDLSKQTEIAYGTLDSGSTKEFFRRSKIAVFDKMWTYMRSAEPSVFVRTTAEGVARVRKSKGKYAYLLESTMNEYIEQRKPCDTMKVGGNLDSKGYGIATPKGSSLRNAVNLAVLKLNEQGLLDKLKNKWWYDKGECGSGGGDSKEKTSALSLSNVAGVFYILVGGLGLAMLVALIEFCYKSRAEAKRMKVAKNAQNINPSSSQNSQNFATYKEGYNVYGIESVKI
Description: First, HA-GluA2 and EGFP-Syn2b overexpression plasmids were transfected into HEK293T cells. After 48 hours of transfection, 10 μM concentration of TAT-P6 and TAT-S6 peptides were given in the cell culture medium for 90 minutes, […] and then cells were collected. The overexpressed Syn2b protein is a fusion protein of Syn2b and GFP, using anti-GFP antibody to precipitate cellular proteins, and then using anti-GluA2 antibody to detect the precipitated proteins, the black imprint on the NC membrane indicates the interaction between GluA2 and Syn2b.
Open field experiment: The open field experiment is an experiment in which animals are placed in a closed open metal box area with a length of 80 cm, width of 80 cm, and height of 50 cm to observe mouse activity. This area is divided into squares, and typically the number of squares crossed by mice within a given time is counted to examine the anxiety emotional state and movement ability of the experimental mice. […] Recording is stopped after observing for a certain time, generally about 5 minutes. • 3) Quantify mouse hippocampal related protein content: immunoblotting; • 4) Disrupting the binding of Syn2b and GluA2 in HEK 293T cells: co-immunoprecipitation, immunoblotting. […]

P301S mice [4] = test: Morris water maze test; assay type: in vivo; details: detection stage on the 8th day, 15 mg/kg subcutaneous, 14 days
Source text: as §1, §2
• 1) Mouse spatial memory detection: novel object recognition and water maze; • a) Novel object recognition: Before conducting the novel object recognition test, it is necessary to eliminate unfamiliarity with the mice by petting them daily to prevent stimulation during operation. The first stage is adaptation period. Mice move freely in the experimental device (without objects) for 10 minutes. The second stage is familiarization period. […] Within 5 min (many experiments have proven that after 2 min of familiarization period, animals already show good preference for novel objects, and of course, 3 min of familiarization makes the preference more obvious), the number of times, time, and distance the animal explores each object are measured. […] During training, the mouse is gently placed in the water from a ½ radian position of any quadrant with its head facing the pool wall, and its latency period (the time taken by the mouse to find the platform from entering the water) and path are detected as indicators to measure the mouse's learning memory and test performance. […] If the platform is not found within 90 s, the system automatically stops recording, and the latency period is recorded as 90 s. […] The initial training period is 6 days, with daily recording of the time needed for mice to find the platform, recorded as the latency period required for mice to find the platform. […]

[5] = Solubility of the synthesized peptide in water; assay type: physicochemical; details: white powder
Source text: The sequence of TAT-P6 is shown in SEQ ID NO:3, artificially synthesized by Jiangsu Qiangyao Biotechnology Co., Ltd., and the mass spectrometry analysis is shown in FIG. 1. […] The sequence of TAT-S6 is shown in SEQ ID NO:4, also synthesized by the same company.

Sequence | movement ability of mice (P301S mice [1]) | time spent at the new object (P301S mice [2]) | GluA2 detected by anti-GluA2 antibody in anti-GFP (Syn2b) precipitate; interaction between Syn2b and GluA2 [3] | latency to reach the platform in the water maze (P301S mice [4]) | number of times crossing the platform position in the water maze (P301S mice [4]) | time spent in the target quadrant in the water maze (P301S mice [4]) | solubility in water [5]
YGRKKRRQRRRCNDILY [TAT-S6] | did not change the movement ability | spent less time at the new object | could be clearly detected | prolonged latency to reach the platform | crossed the platform significantly fewer times | spent significantly less time in the target quadrant | 
YGRKKRRQRRRYILDCN [TAT-P6, YGRKKRRQRRRYILDCN] |  |  |  |  |  |  | completely soluble; also recorded: completely dissolved in water
